In the experiment the test system is Moloney murine leukemia virus. The experiment is described as follows: Inhibition of Moloney murine leukemia virus reverse transcriptase assessed as [3H]-dTMP incorporation after 30 to 120 mins.

For four compounds, logI50 and inhibition results are on record in ChEMBL document CHEMBL3272215, “Gliotoxin analogues as inhibitors of reverse transcriptase. 2. Resolution and X-ray crystal structure determination” (J Med Chem, 1978).

Active and inactive are the calls of the source. The calls are words filed in the database; no cut-off is given here.

`CN1C(=O)[C@]23SSC[C@@H]4OC(C)(C)O[C@H]4CSS[C@@]1(C)C(=O)N2c1ccccc1C3(C)C`: the logI50 stood at 0.796.

Consider `CN1C(=O)[C@]23SS[C@@]1(C)C(=O)N2c1ccccc1C3(C)C`, for which the inhibition result was “Active”.

Regarding `CN1C(=O)[C@@]23SS[C@]1(C)C(=O)N2c1ccccc1C3(C)C`, the inhibition result was “Active”.

With `CN1C(=O)[C@@]23SSC[C@@H]4OC(C)(C)O[C@H]4CSS[C@]1(C)C(=O)N2c1ccccc1C3(C)C`, the logI50 was 0.796.
